Assay results: patent US20150105329A1, “Methods and Pharmaceutical Compositions for Prevention or Treatment of Ischemia Related Organ Damage” (INSERM (Institut National de la Sante et de la Recherche …, priority 2012, published 2015)

What was measured:
[1] = test system: myocardial ischemia/reperfusion injury; experiment: Myocardial ischemia/reperfusion injury, infarct size; type: in vivo, C57/Bl6J mice; settings: for decrease of infarct size vs saline: 30 min ischemia, 3 h reperfusion, p<0.05 vs saline
Experimental: Adult C57/Bl6J mice of 12-15 weeks old (20-30 g) were anesthetized with sodium pentobarbital (60 mg/kg, i.p.). The animals were intubated and ventilated with 100% oxygen (200 μl/breath at a rate of 170 breaths/min), using a Harvard rodent ventilator (Model 845, Harvard Apparatus, Les Ulis, France). Body temperature was monitored with a rectal probe connected to a digital thermometer, and maintained at 37° C. using a heating pad. A catheter was inserted into the jugular vein for bolus injection of drug (0.01 ml/10 g BW, 10-20 sec). The electrocardiogram (ECG) was recorded throughout the experiments on a Gould TA240 recorder (ECG biotech; Gould Instruments, Cleveland, Ohio, USA). A left thoracotomy was performed to expose the heart, and the pericardium was removed. The left anterior descending coronary artery was occluded with an 8.0 prolene suture, 2 mm from the tip of the left atrium for 30 min. Successful coronary occlusion was verified by the development of a pale color in the distal myocardium and by ST segment elevation and QRS widening on the ECG. After 30 min of sustained ischemia, coronary blood flow was restored by loosening the suture. Successful reperfusion was confirmed by visualization of hyperaemic response and restoration of normal ECG. The lungs were then reinflated by increasing positive end expiratory pressure, and the chest was closed. Reperfusion was maintained for a 3-h period. Drugs dissolved in isotonic saline were injected 5 minutes before reperfusion. B2 receptor agonist was administrated at different non hypotensive dosages as defined in preliminary experiments. To ensure the role of specific activation of B2 receptor, B2 agonist was tested with pretreatment by B2R antagonist (HOE140). After reperfusion, the chest was reopened, the coronary artery was reoccluded, and 0.5 ml of a 5% Evans blue solution was injected as a bolus into the jugular vein in order to delineate the area at risk (AR), which remained unstained by the Evans blue. The heart was excised, and the left ventricle (LV) was isolated, weighed, and sliced into 4 transverse pieces from base to apex, the first cutter blade being positioned at the site of the coronary occlusion. The slices were weighed, and color digital images of both sides of each slice were obtained with a Power Shot S50 zoom digital camera (Canon, Tokyo, Japan) connected to a microscope (Leica M Z 75; Leica Microsystems, Rueil-Malmaison, France), using the Adobe Photoshop software (Adobe Systems, San Jose, Calif., USA). The slices were then incubated at 37° C. with buffered 1% 2,3,5-triphenyltetrazolium chloride (TTC) solution for 20 min. Viable myocardium, which contained dehydrogenases, reacted with TTC and was stained brick red, whereas any necrotic tissue remained unstained due to the lack of active enzymes. The tissue sections were then fixed in a buffered 10% formalin solution for 24 h before being photographed again to delineate the IS. The cross-sectional area, the lumen area, the AR (unstained by Evans blue), and IS (unstained by TTC) of the LV were outlined on each color image and quantified by a masked observer using the Scion Image software (Scion Image for Windows; http://www.scioncorp.com). The absolute weights of AR and IS were then calculated for each slice. The sum of the absolute weight values of AR and IS of the 3 ischemic slices of each heart was calculated and expressed as a percentage of the total weight of the slice. The ratio of IS to AR was calculated from these absolute weight evaluations and expressed as a percentage of AR.

[2] = target: T1, hB2R (Homo sapiens, UniProt P30411); settings: naturally expressed and recombinant hB2R; cited from earlier work
T1 sequence (P30411 1-391): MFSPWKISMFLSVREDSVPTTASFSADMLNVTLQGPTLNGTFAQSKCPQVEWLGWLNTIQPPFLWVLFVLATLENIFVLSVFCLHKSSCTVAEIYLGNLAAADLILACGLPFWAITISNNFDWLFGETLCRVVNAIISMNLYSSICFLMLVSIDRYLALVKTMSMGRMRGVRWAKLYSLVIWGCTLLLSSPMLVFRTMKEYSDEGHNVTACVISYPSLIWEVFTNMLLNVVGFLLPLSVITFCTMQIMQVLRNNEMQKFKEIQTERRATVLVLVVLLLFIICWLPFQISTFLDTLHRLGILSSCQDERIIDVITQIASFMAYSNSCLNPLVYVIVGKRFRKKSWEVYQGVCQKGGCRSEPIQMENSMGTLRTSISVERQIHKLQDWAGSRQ

[3] = target: T1, hB2R; settings: naturally expressed and recombinant hB2R; cited from earlier work; remark: listed apart in the source
[4] = test system: hindlimb ischemia in streptozotocin-diabetic mice; experiment: Peripheral (hindlimb) ischemia in diabetic mice, neovascularization; type: in vivo, C57BL/6J mice
Experimental: Two-to three-month-old male C57BL/6J mice were used. Type 1 diabetes was induced by 5 daily ip injections of low-dose of streptozotocin (50 mg/kg dissolved in 0.05M sodium citrate buffer, pH 4.5). Ischemia of hinlimb was induced by permanent ligation of the right femoral artery once the diabetes is established (hyperglycemia >300 mg/dl, 4 weeks after streptozocin injections). Mice were anesthetized by isoflurane inhalation (0.8% in oxygen stream) and the proximal part of the femoral artery just below the origin of the circumflexa femoris lateralis was occluded with a silk suture. Concomitantly with the surgery, half the mice was treated with the B2 agonist (30 nmol/kg·h^−1), infused continuously through osmotic minipumps implanted subcutaneously. The other half of the mice was infused with the vehicle (isotonic saline). Healthy mice, non diabetic without ischemia were used as control.
Two weeks after the onset of ischemia, neovascularization was evaluated by two methods. —Arteries were quantified by high definition microangiography using barium sulfate and digital X-ray transducer. Mice were anesthetized (Pentobarbital injection, 60 mg/kg, I.P.) and longitudinal laparatomy was performed to introduce a polyethylene catheter into the abdominal aorta to inject contrast medium (Barium sulfate, 1 mg/ml). Images (two per animal) were acquired using a high-definition digital X-ray transducer. Vessel density was expressed as a percentage of pixels per image occupied by vessel density in the quantification area. —Capillary density was analyzed by immunohistochemistry using fibronectin-FITC antibody. Frozen tissue sections (7 μm) from calf muscle were incubated with rabbit polyclonal antibody directed against total fibronectin (dilution 1:50) to identify capillaries. The number of capillary by field was determined in both ischemic and nonischemic legs. Results are expressed as ischemic to nonischemic ratio.

[5] = cited from earlier work
[6] = 30 nmol/kg·h s.c. osmotic minipump, 14 days of ischemia

| Substance | effect on infarct size ([1]; antagonist given alone) | effect on cardioprotection by B2 agonist ([1]; pretreatment with B2R antagonist before B2 agonist) | decrease of infarct size vs saline ([1]; 0.01 nmol/kg i.v. bolus 5 min before reperfusion) | decrease of infarct size vs saline ([1]; 0.1 nmol/kg i.v. bolus 5 min before reperfusion) | decrease of infarct size vs saline ([1]; 0.3 nmol/kg i.v. bolus 5 min before reperfusion) | infarct size relative to area at risk ([1]; acute administration, FIG. 1) | in vitro potencies compared with bradykinin [2] | in vitro affinities compared with bradykinin [3] | angiographic score [4, 6] | capillary density [4, 6] | angiogenic effect ([4]; chronic administration 30 nmol/kg·h, FIG. 2) | potency and duration of action in vivo compared with bradykinin [5] |
| --- | --- | --- | --- | --- | --- | --- | --- | --- | --- | --- | --- | --- |
| HOE140 | no effect on infarct size | suppressed the cardioprotective effect of B2 agonist | – | – | – | – | – | – | – | – | – | – |
| [Hyp(3), Thi(5), (N)Chg(7), Thi(8)]-BK [peptide 20] | – | – | −37.2% | −47.3% | −35.6% | Reducing effect | greater | greater | increase | increase | proangiogenic effect | highly superior to bradykinin |
